This note sets out measurements from patent publication US7511026B2, “Therapeutic agent for nerve damage” (Seikagaku Corporation, priority 2003, dated 2009).

Each structure is given as a SMILES string.

Format in all cases: in vivo, Wister rats
Test [1] relates to spinal cord injury, seriously injured model (II). The experiment in a line: Spinal cord evoked potential (SCEP), seriously injured model (II). The note with it: HA4 6.0 μg/animal/day, vs physiological saline-administered group, p<0.05. Here is the method: (§1) Wister rats (SPF, male) were used as animals, and each body was shaved from the neck to the hip using an electric hair clipper under pentobarbital (50 mg/kg weight) anesthesia and cleaned with 70% ethanol and Isodine (manufactured by Meiji Seika Kaisha, Ltd.). The dorsal skin was incised to expose thoracic vertebra from T5 to T10, and hemilaminectomy of the sixth thoracic vertebra (T6 thoracic vertebra) was performed to make a small incision in the dura mater, followed by regional anesthesia with xylocaine (manufactured by Astra Zeneca). […] A respirator was used only when spinal cord evoked potentials were measured. […]
(§2) 7 days after the spinal cord injury, the spinal cord evoked potentials were determined. […] Then, the spinal cord evoked potential (SCEP) was measured, and the “mean±SD” was calculated. The resultant potentials were evaluated using the amplitude of the first potential as an indicator. […]

Test [2] relates to spinal cord injury, seriously injured model (I). The experiment in a line: Spinal cord evoked potential (SCEP), seriously injured model (I). The note with it: for SCEP amplitude (first potential): 7 days after injury, vs PBS-administered group. On the procedure:
(§3) Wister rats (SPF, male) were used as animals, and each body was shaved from the neck to the hip using an electric hair clipper under pentobarbital (50 mg/kg weight) anesthesia and cleaned with 70% ethanol and Isodine (manufactured by Meiji Seika Kaisha, Ltd.). The dorsal skin was incised to expose thoracic vertebra from T5 to T10, and hemilaminectomy of the sixth thoracic vertebra (T6 thoracic vertebra) was performed to make a small incision in the dura mater, followed by regional anesthesia with xylocaine (manufactured by Astra Zeneca). Subsequently, two models were prepared as follows: a spatula (the tip of which had been processed into 0.3 mm) was inserted to the T6 position from the dorsal until the tip reached the abdominal centrum and maintained for 10 minutes to injure the spinal cord (slightly injured model), while a tweezer (the tip of which had been processed into 0.3 mm) was inserted until the tip reached the abdominal centrum, and the portion was pinched from both sides for 10 seconds to injure the spinal cord (seriously injured model). A respirator was used only when spinal cord evoked potentials were measured. The respirator was inserted into the windpipe under 1.0 to 2.0% halothane anesthesia and stabilized with a muscle relaxant.
After the injury, HA4 (6 μl) was immediately administered using a microsyringe (25 μl; manufactured by Ito Seisakusyo Co., Ltd.) into the dura mater. Thereafter, the tip (OD: 0.3 mm) of a tube that was filled with HA4 and connected with an osmotic pump (model 1002, manufactured by Alzet) was placed under the dura mater of the rostral in the injured portion, and HA4 was continuously administered for 7 days. […]
as §2

The subject of test [3] is spinal cord injury, severely injured model (II). The experiment in a line: Hind limb motor function test (BBB scale), severely injured model (II). The note with it: HA4 6 μg/day, over 1 to 7 days after the spinal cord injury, P<0.0001 vs physiological saline-administered group. On the procedure: as §3, with “[…] According to” for “The respirator was inserted into”, “method described by Basso et al., two test examiners individually evaluated blindly using the Basso-Beeattie-Bresnahan (BBB) scale,” for “windpipe under 1.0 to 2.0% halothane anesthesia”, “the mean values were defined as the final score (FIG. 13).” for “stabilized with a muscle relaxant.”

The test system is the same in test [4]. The experiment in a line: Balance beam and metal gauze crossing tests, severely injured model (II). The following applies: 7 days after spinal cord injury, mean of four crossings, P<0.0001 vs physiological saline-administered group. On the procedure: as §3, with “[…] Then, the numbers of slips in the hind limb were recorded, and evaluated by the mean value (FIG. 12). As for the sham surgery group prepared by making a small incision in the dura mater (Sham), the number of slips in the hind limb” for “The respirator”, “also determined.” for “inserted into the windpipe under 1.0 to 2.0% halothane anesthesia and stabilized with a muscle relaxant.”

A further test deals with spinal cord injury model. The experiment in a line: Evaluation on performance status (walking) after spinal cord injury. The note with it: 7 days after the administration; PBS-administered group showed difficulty in walking. Here is the method:
as §3, with “relaxant. […]” for “relaxant.”

For test [5], the system named is spinal cord injury, slightly injured model. The test can be described thus: Histopathologic evaluation of injured spinal cord (Kluver-Barrera staining), slightly injured model. Here is the method: as §3, with “relaxant. After the injury, HA4 (6 μl) was immediately administered using a microsyringe (25 μl; manufactured by Ito Seisakusyo Co., Ltd.) into the dura mater. Thereafter, the tip (OD: 0.3 mm) of a tube that was filled with HA4 and connected with an osmotic pump (model 1002, manufactured by Alzet) was placed under the dura mater of the rostral in the injured portion, and HA4 was continuously administered for 7 days. Meanwhile, 5 minutes, 2 hours, 4 hours, and 6 hours after the injury, 30 mg/kg of methylprednisolone sodium succinate (MPSS, manufactured by Pharmacia) was administered into the tail vein as a positive control. For separating the injured portion from the surrounding tissues, a gelatin sponge (Gelform; manufactured by Pharmacia) was placed, and the rat was brought back to a feeding gauge after the wound had been sewn. […]” for “relaxant.”

Test [6] has the same test system. The experiment in a line: Spinal cord evoked potential (SCEP), slightly injured model. The note with it: HA4 60 μg/animal/day, 7 days after injury. Here is the method:
as §1, §2

On to `CC(=O)N[C@H]1[C@H](O[C@H]2[C@H](O)[C@@H](O)[C@H](O[C@H]3[C@H](O)[C@@H](CO)OC(O)[C@@H]3NC(C)=O)O[C@@H]2C(=O)O)O[C@H](CO)[C@@H](O)[C@@H]1O[C@@H]1O[C@H](C(=O)O)[C@@H](O)[C@H](O)[C@H]1O` (stereo partly shown) [HA4, GlcA-GlcNAc-GlcA-GlcNAc], for which the SCEP amplitude result in test [1] is “significantly recovered”. Besides, the “SCEP amplitude (first potential)” value in test [2] (HA4 0.6 μg/animal/day, p<0.05) is reported as “decrease of the SCEP amplitude was significantly attenuated or the SCEP amplitude was recovered”; in test [2] (HA4 6 μg/animal/day, p<0.001, same level as the normal level), “decrease of the SCEP amplitude was significantly attenuated or the SCEP amplitude was recovered”; in test [6] (intradural, continuous 7 days, vs PBS-administered group, p<0.05), “decrease of SCEP amplitude was significantly attenuated or the SCEP amplitude was recovered”. Moreover, in test [2] (HA4 6 μg/animal/day vs MPSS 30 mg/kg x 4 times, tail vein), the “SCEP effect compared with MPSS” value is recorded as “stronger effect than that of MPSS”. Also, in test [3], the “motor function in the hind limb (BBB scale)” value is “significantly recovered”. Further, the “number of slips in the hind limb, balance beam crossing” value in test [4] is “significantly low”. The “number of slips in the hind limb, metal gauze crossing” value in test [4] is on record as “significantly low”. For the same molecule, in the test with spinal cord injury model, the “performance status (walking)” value is “walking approximately similar to that of the normal rat was observed”. In addition, the “number of axons crossing from white matter to gray matter” value in test [5] (5 mm range in the rostral/caudal direction in the injured site, vs physiological saline-administered group) is recorded as “significantly larger”. For the same molecule, in test [5] (Kluver-Barrera staining, PBS group showed edema and myelin loss 1 cm or more from the injured site), the “tissue injury, edema and myelin loss in white matter” value is “the tissue injury was present only near the injured site, and edema and myelin loss were rarely observed in white matter”. Besides, the “injured area (damaged area)” value in test [5] (coronal plane including the central canal, vs PBS-administered group) was “significantly smaller”. In test [6], the “SCEP amplitude level relative to normal (no injury-no treatment group)” value is given as “the same as the normal level”.
